Results from ChEMBL document CHEMBL1201862, “PubChem BioAssay data set” (2004).
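A five-concentration, 48-hour dose response in 96-well plates underlies each endpoint, interpolated linearly between surrounding concentrations. GI50 marks 50% less growth.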 Activity calls are given as the source filed them. Rule as the data show it: active = GI50 up to about 1.1 µM and inactive = higher.

How the values were obtained:
Experiment in all cases: NCI anticancer screen, dose series, 48 h
[1] = tested on: MDA-N
[2] = tested on: HL-60
[3] = tested on: PC-3
[4] = tested on: UACC-62
[5] = tested on: SN12C
[6] = tested on: NCI-H226
[7] = tested on: BT-549
[8] = tested on: MDA-MB-231
[9] = tested on: SNB-75
[10] = tested on: T47D
[11] = tested on: EKVX
[12] = tested on: LOX IMVI
[13] = tested on: MDA-MB-435
[14] = tested on: NCI-H23
[15] = tested on: HOP-62
[16] = tested on: U-251
[17] = tested on: HT-29
[18] = tested on: IGROV-1
[19] = tested on: MOLT-4
[20] = tested on: NCI-H460

SMILES | GI50 [1] | GI50 [2] | GI50 [3] | GI50 [4] | GI50 [5] | GI50 [6] | GI50 [7] | GI50 [8] | GI50 [9] | GI50 [10] | GI50 [11] | GI50 [12] | GI50 [13] | GI50 [14] | GI50 [15] | GI50 [16] | GI50 [17] | GI50 [18] | GI50 [19] | GI50 [20]
CCN(CC)CCc1c2c(nc3ccccc13)C(=O)c1cccnc1C2=O | 1.67 µM (inactive) | 0.251 µM (active) | 2.82 µM (inactive) | 1.54 µM (inactive) | 1.1 µM (active) | 4.68 µM (inactive) | 2.4 µM (inactive) | 1.83 µM (inactive) | 5.65 µM (inactive) | 1.96 µM (inactive) | 2.89 µM (inactive) | 0.369 µM (active) | 1.93 µM (inactive) | 3.08 µM (inactive) | 2.44 µM (inactive) | 2.88 µM (inactive) | 3.31 µM (inactive) | 1.74 µM (inactive) | 3.24 µM (inactive) | –
O=C(C#Cc1cn(C2CC(O)C(CO)O2)c(=O)[nH]c1=O)c1ccccc1 (stereo unspecified) | 60.3 µM (inactive) | – | > 100 µM (inactive) | > 100 µM (inactive) | 31.8 µM (inactive) | 70 µM (inactive) | 37.2 µM (inactive) | > 100 µM (inactive) | > 100 µM (inactive) | 19.5 µM (inactive) | > 100 µM (inactive) | 49.8 µM (inactive) | 58.9 µM (inactive) | > 100 µM (inactive) | > 100 µM (inactive) | > 100 µM (inactive) | > 100 µM (inactive) | > 100 µM (inactive) | – | > 100 µM (inactive)
O=C1C(=CNc2ccc([N+](=O)[O-])cc2)C(=O)N(c2ccccc2)C(=O)N1c1ccccc1 | > 100 µM (inactive) | – | > 100 µM (inactive) | 41.3 µM (inactive) | > 100 µM (inactive) | > 100 µM (inactive) | > 100 µM (inactive) | > 100 µM (inactive) | 71.6 µM (inactive) | 70.1 µM (inactive) | > 100 µM (inactive) | > 100 µM (inactive) | > 100 µM (inactive) | > 100 µM (inactive) | > 100 µM (inactive) | > 100 µM (inactive) | > 100 µM (inactive) | > 100 µM (inactive) | > 100 µM (inactive) | > 100 µM (inactive)
Oc1cnnc2nc3ccccc3n12 | > 100 µM (inactive) | > 100 µM (inactive) | > 100 µM (inactive) | – | > 100 µM (inactive) | > 100 µM (inactive) | > 100 µM (inactive) | > 100 µM (inactive) | > 100 µM (inactive) | > 100 µM (inactive) | 34.8 µM (inactive) | 85.5 µM (inactive) | > 100 µM (inactive) | > 100 µM (inactive) | > 100 µM (inactive) | > 100 µM (inactive) | > 100 µM (inactive) | > 100 µM (inactive) | > 100 µM (inactive) | > 100 µM (inactive)
CN(C(=O)c1ccccc1)C1CCCC(=O)CC1 (stereo unspecified) | > 100 µM (inactive) | > 100 µM (inactive) | > 100 µM (inactive) | > 100 µM (inactive) | > 100 µM (inactive) | > 100 µM (inactive) | > 100 µM (inactive) | > 100 µM (inactive) | > 100 µM (inactive) | > 100 µM (inactive) | > 100 µM (inactive) | > 100 µM (inactive) | > 100 µM (inactive) | > 100 µM (inactive) | > 100 µM (inactive) | > 100 µM (inactive) | > 100 µM (inactive) | > 100 µM (inactive) | – | > 100 µM (inactive)
COc1cc2nc(-c3c(F)cccc3F)n(Cc3c(F)cccc3F)c2cc1Cc1c(F)cccc1F | > 100 µM (inactive) | – | > 100 µM (inactive) | 2.64 µM (inactive) | > 69.8 µM (inactive) | > 28.6 µM (inactive) | > 71.8 µM (inactive) | 27.7 µM (inactive) | 2.74 µM (inactive) | 4.05 µM (inactive) | 16.9 µM (inactive) | > 100 µM (inactive) | 8.59 µM (inactive) | > 100 µM (inactive) | > 100 µM (inactive) | > 100 µM (inactive) | 3.53 µM (inactive) | 0.292 µM (active) | 6.84 µM (inactive) | 15.3 µM (inactive)
CC(=O)OC1CC2c3cccc4c3C(CC2N(C)C1=O)CN4C(=O)c1ccccc1 (stereo unspecified) | 21.7 µM (inactive) | 15.2 µM (inactive) | 20.2 µM (inactive) | 20.3 µM (inactive) | 18.8 µM (inactive) | 20.7 µM (inactive) | 6.9 µM (inactive) | 12.6 µM (inactive) | – | 18.1 µM (inactive) | 22.1 µM (inactive) | 12.1 µM (inactive) | 18.4 µM (inactive) | 16.6 µM (inactive) | 23.2 µM (inactive) | 15.7 µM (inactive) | 17.9 µM (inactive) | 14.6 µM (inactive) | 20.9 µM (inactive) | –
CC(C)(C)C1=CC(C)(n2[nH]c(=O)n(-c3ccccc3)c2=O)C=C(C(C)(C)C)C1=O | > 100 µM (inactive) | – | > 100 µM (inactive) | 75.3 µM (inactive) | > 100 µM (inactive) | > 100 µM (inactive) | > 100 µM (inactive) | > 100 µM (inactive) | 98.4 µM (inactive) | 59.6 µM (inactive) | – | > 100 µM (inactive) | > 100 µM (inactive) | > 100 µM (inactive) | – | > 100 µM (inactive) | > 100 µM (inactive) | – | – | > 100 µM (inactive)
